Experiments:
[1] = tested on: saphenous artery rings; test: Vasorelaxant effect in vitro (phenylephrine-contracted artery rings); type: cell-based, Rabbits; conditions: rabbit saphenous artery rings, contraction induced by phenylephrine
Method: Rabbits are anesthetized and sacrificed by intravenous injection of thiopental sodium (about 50 mg/kg) and exsanguinated. The saphenous artery is removed and divided into rings 3 mm wide. The rings are mounted singly on in each case a pair of triangular hooks open at the end and made of 0.3 mm-thick special wire (Remanium®). Each ring is placed under an initial tension in 5 ml organ baths with Krebs-Henseleit solution which is at 37° C., is gassed with 95% O2/5% CO2 and has the following composition: NaCl 119 mM; KCl 4.8 mM; CaCl2×2H2O 1 mM; MgSO4×7H2O 1.4 mM; KH2PO4 1.2 mM; NaHCO3 25 mM; glucose 10 mM; bovine serum albumin 0.001%. The force of contraction is detected with Statham UC2 cells, amplified and digitized via A/D converters (DAS-1802 HC, Keithley Instruments, Munich) and recorded in parallel on chart recorders. Contractions are induced by addition of phenylephrine.
After several (generally 4) control cycles, the substance to be investigated is added in each further run in increasing dosage, and the height of the contraction achieved under the influence of the test substance is compared with the height of the contraction reached in the last preceding run. The concentration necessary to reduce the contraction reached in the preceding control by 50% is calculated from this (IC50). The standard application volume is 5 μl. The proportion of DMSO in the bath solution corresponds to 0.1%.

[2] = target: T1, Heme-containing sGC (recombinant soluble guanylate cyclase) (Rattus norvegicus, UniProt P20595); test: Stimulation of recombinant soluble guanylate cyclase (sGC) in vitro, heme-containing enzyme; type: biochemical; conditions: 0.0 μM Example 6
T1 construct: made in house
T1 sequence (P20595 1-619): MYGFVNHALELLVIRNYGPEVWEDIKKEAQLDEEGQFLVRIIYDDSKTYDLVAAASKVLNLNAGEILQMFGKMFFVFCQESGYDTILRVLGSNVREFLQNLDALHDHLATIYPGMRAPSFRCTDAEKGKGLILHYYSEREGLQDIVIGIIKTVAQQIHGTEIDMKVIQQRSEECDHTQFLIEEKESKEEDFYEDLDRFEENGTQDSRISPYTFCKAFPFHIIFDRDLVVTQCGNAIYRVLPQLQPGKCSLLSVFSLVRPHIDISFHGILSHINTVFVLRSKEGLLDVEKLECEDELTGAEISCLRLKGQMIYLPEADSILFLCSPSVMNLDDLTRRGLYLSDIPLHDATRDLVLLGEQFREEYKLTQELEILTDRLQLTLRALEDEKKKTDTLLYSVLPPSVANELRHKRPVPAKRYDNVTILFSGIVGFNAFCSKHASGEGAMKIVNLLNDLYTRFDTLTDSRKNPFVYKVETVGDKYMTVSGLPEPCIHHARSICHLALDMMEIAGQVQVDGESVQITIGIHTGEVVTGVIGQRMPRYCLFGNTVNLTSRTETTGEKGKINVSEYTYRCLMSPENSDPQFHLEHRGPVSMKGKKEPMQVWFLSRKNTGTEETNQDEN
T1 sequence (P19686 1-690 partner): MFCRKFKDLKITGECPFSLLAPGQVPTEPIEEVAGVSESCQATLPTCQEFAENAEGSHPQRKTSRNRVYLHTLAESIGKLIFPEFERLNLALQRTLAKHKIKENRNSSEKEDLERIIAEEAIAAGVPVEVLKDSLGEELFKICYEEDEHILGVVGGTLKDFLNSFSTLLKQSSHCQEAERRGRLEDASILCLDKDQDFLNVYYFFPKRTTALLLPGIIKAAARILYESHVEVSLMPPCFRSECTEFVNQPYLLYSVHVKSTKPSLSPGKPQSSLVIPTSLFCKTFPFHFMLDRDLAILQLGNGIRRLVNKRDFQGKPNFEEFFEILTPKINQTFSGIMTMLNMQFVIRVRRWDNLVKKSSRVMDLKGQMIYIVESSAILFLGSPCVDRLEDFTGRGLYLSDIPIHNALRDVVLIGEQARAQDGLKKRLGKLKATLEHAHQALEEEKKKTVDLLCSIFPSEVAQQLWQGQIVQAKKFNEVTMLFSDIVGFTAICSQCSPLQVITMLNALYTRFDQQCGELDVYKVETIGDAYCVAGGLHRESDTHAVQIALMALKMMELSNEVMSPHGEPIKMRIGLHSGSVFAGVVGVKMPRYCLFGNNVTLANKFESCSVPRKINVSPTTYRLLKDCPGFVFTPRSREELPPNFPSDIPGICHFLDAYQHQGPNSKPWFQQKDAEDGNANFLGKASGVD
Source text: Hoenicka, E. M. Becker, H. Apeler, T. Sirichoke, H. Schroeder, R. Gerzer and J.-P. Stasch, “Purified soluble guanylyl cyclase expressed in a baculovirus/Sf9 system: Stimulation by YC-1, nitric oxide, and carbon oxide”, J. Mol. Med. 77 (1999), 14-23. The heme-free guanylate cyclase is obtained by adding Tween 20 to the sample buffer (0.5% in the final concentration).
(§1) The activation of sGC by a test substance is reported as n-fold stimulation of the basal activity.

[3] = target: T2, Heme-free sGC (recombinant soluble guanylate cyclase) (Rattus norvegicus, UniProt P20595); test: Stimulation of recombinant soluble guanylate cyclase (sGC) in vitro, heme-free enzyme; type: biochemical; conditions: 10 μM ODQ, 0.0 μM Example 6
T2 construct: made in house
T2 sequence (P20595 1-619): T1 sequence (P20595 1-619)
T2 sequence (P19686 1-690 partner): T1 sequence (P19686 1-690 partner)
Method: Investigations on the stimulation of recombinant soluble guanylate cyclase (sGC) by the compounds according to the invention with and without sodium nitroprusside, and with and without the heme-dependent sGC inhibitor 1H-1,2,4-oxadiazole-(4,3a)-quinoxalin-1-one (ODQ) are carried out by the method described in detail in the following reference: M. Hoenicka, E. M. Becker, H. Apeler, T. Sirichoke, H. Schroeder, R. Gerzer and J.-P. Stasch, “Purified soluble guanylyl cyclase expressed in a baculovirus/Sf9 system: Stimulation by YC-1, nitric oxide, and […]”, J. Mol. Med. 77 (1999), 14-23. The heme-free guanylate cyclase is obtained by adding Tween 20 to the sample buffer (0.5% in the final concentration).
as §1

Structure (SMILES) | IC50 ([1]; Oryctolagus cuniculus) [nM] | IC50 [1] [nM] | further results
CC(C)(C)c1ccc(COc2ccccc2/C=C/C(CCc2ccc(-c3nnn[nH]3)cc2)Cc2ccc(C(=O)O)cc2)c(Cl)c1 (single isomer, unassigned) [Example 3, 4-((3E)-4-{2-[(4-tert-Butyl-2-chlorobenzyl)oxy]phenyl}-2-{2-[4-(1H-tetrazol-5-yl)phenyl]ethyl}but-3-en-1-yl)benzoic acid] | 682 |  | 
CC(C)(C)c1ccc(COc2ccccc2/C=C/C(CCc2ccc(-c3nnn[nH]3)cc2)Cc2ccc(C(=O)O)cc2)cc1 (single isomer, unassigned) [Example 5, 4-((3E)-4-{2-[(4-tert-Butylbenzyl)oxy]phenyl}-2-{2-[4-(1H-tetrazol-5-yl)phenyl]ethyl}but-3-en-1-yl)benzoic acid] |  | 2510 | 
O=C(O)c1ccc(CCC(/C=C/c2ccccc2OCCCCCc2ccccc2)Cc2ccc(-c3nnn[nH]3)cc2)cc1 (single isomer, unassigned) [Example 14, 4-{(4E)-5-{2-[(5-Phenylpentyl)oxy]phenyl}-3-[4-(1H-tetrazol-5-yl)benzyl]pent-4-en-1-yl}benzoic acid] | 1320 |  | 
CC(C)(C)c1ccc(COc2ccccc2/C=C/C(CCc2ccc(C(=O)O)cc2)Cc2ccc(-c3nnn[nH]3)cc2)cc1 (single isomer, unassigned) [Example 23, 4-{(4E)-5-{2-[(4-tert-Butylbenzyl)oxy]phenyl}-3-[4-(1H-tetrazol-5-yl)benzyl]pent-4-en-1-yl}benzoic acid] |  | 3890 | 
CC(C)(C)c1ccc(COc2ccccc2/C=C/C(CCc2ccc(C(=O)O)cc2)Cc2ccc(-c3nnn[nH]3)cc2)cc1 (single isomer, unassigned) [Example 24, 4-{(4E)-5-{2-[(4-tert-Butylbenzyl)oxy]phenyl}-3-[4-(1H-tetrazol-5-yl)benzyl]pent-4-en-1-yl}benzoic acid] |  | 102 | 
CC(C)(C)c1ccc(COc2ccccc2/C=C/C(CCCCc2nnn[nH]2)CCc2ccc(C(=O)O)cc2)cc1 (single isomer, unassigned) [Example 26, 4-[3-((E)-2-{2-[(4-tert-Butylbenzyl)oxy]phenyl}vinyl)-7-(1H-tetrazol-5-yl)heptyl]benzoic acid] |  | 559 | 
CC(C)(C)c1ccc(COc2ccccc2/C=C/C(CCCCc2nnn[nH]2)CCc2ccc(C(=O)O)cc2)cc1 (single isomer, unassigned) [Example 27, 4-[3-((E)-2-f{2-[(4-tert-Butylbenzyl)oxy]phenyl}vinyl)-7-(1H-tetrazol-5-yl)heptyl]benzoic acid] |  | 9.7 | 
CC(C)(C)c1ccc(COc2ccccc2/C=C/C(CCCCC(=O)O)CCc2ccc(-c3nnn[nH]3)cc2)cc1 (single isomer, unassigned) [Example 29, (7E)-8-{2-[(4-tert-Butylbenzyl)oxy]phenyl}-6-{2-[4-(1H-tetrazol-5-yl)phenyl]ethyl}oct-7-enoic acid] | 1990 |  | 
CC(C)(C)c1ccc(COc2ccccc2/C=C/C(CCCCC(=O)O)Cc2ccc(-c3nnn[nH]3)cc2)cc1 (single isomer, unassigned) [Example 36, (7E)-8-{2-[(4-tert-Butylbenzyl)oxy]phenyl}-6-[4-(1H-tetrazol-5-yl)benzyl]oct-7-enoic acid] | 760 |  | 
CCN(CC)[N+]([O-])=NO [DEA/NO, 2-(N,N-diethylamino)diazenolate 2-oxide, reference compound] |  |  | Stimulation (n-fold) Heme-containing sGC by DEA/NO alone ([2]; 0.1 μM DEA/NO): 64.1 n-fold
COc1ccc(CCc2ccc(F)cc2/C=C\C(CCc2ccc(C(=O)O)cc2)Cc2ccc(-c3nnn[nH]3)cc2)cc1 (centres unmarked) [Example 17, 4-{(4Z)-5-{5-Fluoro-2-[2-(4-methoxyphenyl)ethyl]phenyl}-3-[4-(1H-tetrazol-5-yl)benzyl]pent-4-en-1-yl}benzoic acid] | 5800 |  | 
COc1ccc(CCc2ccc(F)cc2/C=C/C(CCc2ccc(C(=O)O)cc2)Cc2ccc(-c3nnn[nH]3)cc2)cc1 (centres unmarked) [Example 18, 4-{(4E)-5-{5-Fluoro-2-[2-(4-methoxyphenyl)ethyl]phenyl}-3-[4-(1H-tetrazol-5-yl)benzyl]pent-4-en-1-yl}benzoic acid] | 890 |  | 
O=C(O)c1ccc(CCC(/C=C/c2ccccc2OCc2ccc(-c3ccc(C(F)(F)F)cc3)cc2)Cc2ccc(-c3nnn[nH]3)cc2)cc1 (centres unmarked) [Example 21, 4-[(4E)-3-[4-(1H-Tetrazol-5-yl)benzyl]-5-(2-{[4′-(trifluoromethyl)biphenyl-4-yl]-methoxy}phenyl)pent-4-en-1-yl]benzoic acid] | 372 |  | 
O=C(O)c1ccc(CCC(/C=C/c2ccccc2OCc2ccc(OC(F)(F)F)cc2)CCCCc2nnn[nH]2)cc1 (centres unmarked) [Example 38] | 567 |  | 
O=C(O)c1ccc(CCC(/C=C/c2ccccc2OCc2cc(C(F)(F)F)cc(C(F)(F)F)c2)CCCCc2nnn[nH]2)cc1 (centres unmarked) [Example 39] | 150 |  | 
O=c1onc2cnc3ccccc3n12 [ODQ, 1H-1,2,4-oxadiazole-(4,3a)-quinoxalin-1-one, reference compound] |  |  | Stimulation (n-fold) Heme-containing sGC with ODQ alone ([2]; 10 μM ODQ): 2.4 n-fold; Stimulation (n-fold) Heme-free sGC with ODQ alone [3]: 1.2 n-fold

— US8183271B2, “Tetrazole derivatives and their use for the treatment of cardiovascular diseases” (Bayer Intellectual Property GmbH, priority 2005, dated 2012)
